Here are results for 1 compound from PMC7049213, “Nerylneryl diphosphate is the precursor of serrulatane, viscidane and cembrane-type diterpenoids in Eremophila species” (BMC Plant Biology, 2020).

Assay in all cases: co-expression with SlCPT2 in E. coli and N. benthamiana, GC-MS
Format in all cases: cell-based
What all share (settings): NNPP formed in cells by SlCPT2; E. coli 18 °C, 48 h

The target of one test is T1, ElTPS3 (Eremophila lucida, UniProt A0A6G9KVC7).
T1 construct: full length in N. benthamiana; TPS-a class I

The target of the next test is T2, EdTPS22 (Eremophila drummondii, UniProt A0A6G9KSU3).
T2 construct: full length in N. benthamiana; TPS-a class I

The target of the next test is T3, EdtTPS4 (Eremophila denticulata, UniProt A0A6G9KV06).
T3 construct: full length in N. benthamiana; TPS-a class I

For the next test, the target named is T4, ElTPS31 (Eremophila lucida, UniProt A0A6G9KSS8).
T4 construct: full length in N. benthamiana; TPS-b class I
T4 sequence (A0A6G9KSS8 entry or part of it): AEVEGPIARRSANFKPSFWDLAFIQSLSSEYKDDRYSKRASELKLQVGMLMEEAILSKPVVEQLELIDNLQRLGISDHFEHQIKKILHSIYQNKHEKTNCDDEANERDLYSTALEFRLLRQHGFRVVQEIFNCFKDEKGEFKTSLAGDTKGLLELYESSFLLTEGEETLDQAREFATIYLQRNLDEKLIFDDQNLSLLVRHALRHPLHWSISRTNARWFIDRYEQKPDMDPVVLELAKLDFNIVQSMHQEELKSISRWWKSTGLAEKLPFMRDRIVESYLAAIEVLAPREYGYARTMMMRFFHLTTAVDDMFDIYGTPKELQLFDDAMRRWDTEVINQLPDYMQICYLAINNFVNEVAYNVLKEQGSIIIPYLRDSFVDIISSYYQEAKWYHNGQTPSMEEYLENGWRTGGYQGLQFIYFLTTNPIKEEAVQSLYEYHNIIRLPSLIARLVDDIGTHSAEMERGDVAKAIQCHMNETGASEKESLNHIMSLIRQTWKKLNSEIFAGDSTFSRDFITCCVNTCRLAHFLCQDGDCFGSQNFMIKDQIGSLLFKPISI

T3 sequence (A0A6G9KV06 entry or part of it): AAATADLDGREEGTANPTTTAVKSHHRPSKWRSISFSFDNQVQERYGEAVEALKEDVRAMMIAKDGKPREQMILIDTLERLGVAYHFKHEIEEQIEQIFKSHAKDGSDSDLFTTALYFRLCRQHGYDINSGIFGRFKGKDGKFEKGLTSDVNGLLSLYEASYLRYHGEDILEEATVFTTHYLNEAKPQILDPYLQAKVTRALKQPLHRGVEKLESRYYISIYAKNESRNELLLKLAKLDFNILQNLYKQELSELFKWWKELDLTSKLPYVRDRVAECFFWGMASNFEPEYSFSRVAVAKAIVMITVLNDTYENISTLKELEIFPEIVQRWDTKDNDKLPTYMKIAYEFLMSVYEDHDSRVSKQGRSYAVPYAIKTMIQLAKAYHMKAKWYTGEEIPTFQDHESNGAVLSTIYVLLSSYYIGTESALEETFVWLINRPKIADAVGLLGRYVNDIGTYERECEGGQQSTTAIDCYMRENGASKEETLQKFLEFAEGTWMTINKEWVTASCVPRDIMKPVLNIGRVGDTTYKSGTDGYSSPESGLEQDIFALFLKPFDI
T2 sequence (A0A6G9KSU3 entry or part of it): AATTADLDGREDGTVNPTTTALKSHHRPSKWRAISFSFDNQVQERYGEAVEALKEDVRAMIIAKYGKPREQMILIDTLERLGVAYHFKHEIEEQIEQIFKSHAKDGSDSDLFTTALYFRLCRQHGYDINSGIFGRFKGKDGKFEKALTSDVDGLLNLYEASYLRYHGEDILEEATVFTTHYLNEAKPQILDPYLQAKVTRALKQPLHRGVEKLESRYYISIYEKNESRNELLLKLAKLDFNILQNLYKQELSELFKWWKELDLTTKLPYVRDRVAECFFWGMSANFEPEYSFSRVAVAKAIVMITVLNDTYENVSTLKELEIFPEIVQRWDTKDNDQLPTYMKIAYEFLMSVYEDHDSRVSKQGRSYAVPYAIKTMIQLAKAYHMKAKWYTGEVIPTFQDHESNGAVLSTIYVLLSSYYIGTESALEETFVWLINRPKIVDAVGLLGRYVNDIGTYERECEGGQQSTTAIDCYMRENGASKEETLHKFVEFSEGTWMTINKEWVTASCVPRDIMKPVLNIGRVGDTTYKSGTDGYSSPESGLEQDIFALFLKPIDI
T1 sequence (A0A6G9KVC7 entry or part of it): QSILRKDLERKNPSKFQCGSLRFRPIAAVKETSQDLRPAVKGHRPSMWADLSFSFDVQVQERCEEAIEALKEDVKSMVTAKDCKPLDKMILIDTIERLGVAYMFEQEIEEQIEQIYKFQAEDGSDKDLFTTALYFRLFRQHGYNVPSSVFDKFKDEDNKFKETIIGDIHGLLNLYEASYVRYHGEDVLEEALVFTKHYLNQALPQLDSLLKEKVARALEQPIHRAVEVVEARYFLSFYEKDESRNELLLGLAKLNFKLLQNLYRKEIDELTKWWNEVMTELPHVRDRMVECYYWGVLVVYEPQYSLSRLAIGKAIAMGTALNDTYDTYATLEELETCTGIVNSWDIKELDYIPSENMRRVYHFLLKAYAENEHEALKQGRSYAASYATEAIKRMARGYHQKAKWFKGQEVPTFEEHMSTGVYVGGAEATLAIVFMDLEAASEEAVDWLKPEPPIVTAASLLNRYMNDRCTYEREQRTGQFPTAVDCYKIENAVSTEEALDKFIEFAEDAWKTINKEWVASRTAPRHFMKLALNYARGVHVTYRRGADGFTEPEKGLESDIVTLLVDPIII

As to `CC(C)=CCC/C(C)=C\CC/C(C)=C\CC/C(C)=C\COP(=O)(O)OP(=O)(O)O` [nerylneryl diphosphate], the “co-expression with SlCPT2 in E. coli and N. benthamiana, GC-MS” value is “co-expression of either one of ElTPS3, ElTPS31, EdtTPS4 or EdTPS22 with NNPP-forming SlCPT2” at ElTPS3; “co-expression of either one of ElTPS3, ElTPS31, EdtTPS4 or EdTPS22 with NNPP-forming SlCPT2” on EdTPS22; “co-expression of either one of ElTPS3, ElTPS31, EdtTPS4 or EdTPS22 with NNPP-forming SlCPT2” at EdtTPS4; “co-expression of either one of ElTPS3, ElTPS31, EdtTPS4 or EdTPS22 with NNPP-forming SlCPT2” on ElTPS31.
